From patent US6133299A, “Methods for treating neurodegenerative diseases and disorders using N-(2,6-disubstituted aromatic)-N'-pyridinyl ureas and other anticonvulsant compounds” (Warner-Lambert Company, priority 1993, dated 2000)
“Also recorded” adds a separate entry of the source.

Legend:
cytokinin activity = details: cited from earlier work
[1] = test system: neuroprotective capabilities; test: Neuroprotective capabilities in vitro (general statement); type: cell-based
Hippocampal Slices [2] = test: Recovery of synaptic activity (EPSP) in hippocampal slices after hypoxia-hypoglycemia (Example 4); type: cell-based, rat (male Wistar); details: for recovery of EPSPs, overall effect: concentrations tested in Table 2
Experimental: Young male Wistar rats (150 to 250 g) were anesthetized with ketamine (200 mg/kg IP) and ether and were perfused transcardially with cold, oxygenated, low sodium-containing physiological buffer solution (252 mM sucrose, 3.5 mM KCl, 1.0 mM MgSO4, 20 mM CaC1, 26 mM NaHCO3, 1.25 mM NaH2 PO4, and 10 mM glucose) with 50 μM ketamine added. Brains were removed and hippocampi carefully excised. Hippocampi were sliced transversely at 450 μm and transferred into cold (4° C.) low-sodium buffer solution gassed with 95% O2, 5% CO2 at 31° C. After 45 minutes slices were transferred to oxygenated normal physiological solution (126 mM NaCl, 3.5 mM KCl, 1.0 mM MgSO4, 2.0 mM CaCl2, 20 mM NaHCO3, 1.25 mM NaH2 PO4, and 10 mM glucose) at 31° C. for at least 1 hour before experiments began. After preincubation, slices were transferred to a heated (36° C.), gassed incubation chamber where they were continuously superfused with gassed normal physiological solution. Evoked extracellular synaptic potentials (EPSPs) were obtained using glass micropipettes placed approximately 100 μm into the slice. Electrical stimulation was applied once per minute to the stratum radiatum by insulated paired nichrome wires (60 μm diameter). Stimuli consisted of 150 μA pulses lasting 0.4 msec. […] Data from a slice were used only if EPSP amplitude was greater than 2.0 mV before hypoxia-hypoglycemia.
(§1) Evoked potentials were recorded and analyzed with a digital computer interface. Experiments were started by recording for several minutes under normal conditions (95% O2, 5% CO2, 10 mM glucose). Then drug was added to the superfusion solution (or normal solution was continued in control experiments). After 10 minutes of drug superfusion, hypoxia-hypoglycemia was induced by switching to superfusion solution containing added drug with low glucose (2 mM) that was equilibrated with 95% N2 and 5% CO2. At the same time the slice chamber gas was switched to 95% N2 and 5% CO2. Hypoxia-hypoglycemia was continued for 12 minutes. After 12 minutes, 95% O2 and 10 mM glucose were returned to the slices and the superfusing solution. Following 15 minutes of reoxygenation, the experiment was ended. EPSPs were considered recovered if they returned to at least half of their original amplitude. The percentage of slices with recovered EPSPs were calculated for each condition.
This study was identical in design to Example 3 except that during the hypoxic period of 12 minutes, glucose was reduced from 10 mM to 2 mM rather than from 10 mM to zero as in Example 3.

Hippocampal Slices [3] = test: Effect on synaptic potentials / presynaptic action potential in slices before hypoxia; type: cell-based, rat (male Wistar)
Experimental: Young male Wistar rats (150 to 250 g) were anesthetized with ketamine (200 mg/kg IP) and ether and were perfused transcardially with cold, oxygenated, low sodium-containing physiological buffer solution (252 mM sucrose, 3.5 mM KCl, 1.0 mM MgSO4, 20 mM CaC1, 26 mM NaHCO3, 1.25 mM NaH2 PO4, and 10 mM glucose) with 50 μM ketamine added. Brains were removed and hippocampi carefully excised. Hippocampi were sliced transversely at 450 μm and transferred into cold (4° C.) low-sodium buffer solution gassed with 95% O2, 5% CO2 at 31° C. After 45 minutes slices were transferred to oxygenated normal physiological solution (126 mM NaCl, 3.5 mM KCl, 1.0 mM MgSO4, 2.0 mM CaCl2, 20 mM NaHCO3, 1.25 mM NaH2 PO4, and 10 mM glucose) at 31° C. for at least 1 hour before experiments began. After preincubation, slices were transferred to a heated (36° C.), gassed incubation chamber where they were continuously superfused with gassed normal physiological solution. Evoked extracellular synaptic potentials (EPSPs) were obtained using glass micropipettes placed approximately 100 μm into the slice. […]
Evoked potentials were recorded and analyzed with a digital computer interface. […] The percentage of slices with recovered EPSPs were calculated for each condition.
Excitatory synaptic potential (EPSP) amplitude was measured before and during drug treatment in the 10-minute period preceding reduced oxygen and glucose. […]

[4] = in vivo; cited from earlier work
[5] = test system: voltage-dependent sodium channels; details: cited from earlier work
[6] = test system: Neuronal/Glial Cortical Cultures; test: Hypoxia-induced lactate dehydrogenase release (cell injury) in neuronal/glial cortical cultures; type: cell-based, rat (Sprague Dawley); details: Rattus norvegicus, read-out: % Inh (percent inhibition of the release of lactate dehydrogenase in comparison to hypoxic control cultures)
Experimental: An assay was conducted to compare the inhibitory action of various compounds which are the subject of the present invention. The assay measured the oxygen deprivation-induced neuronal cell death from various cortical cultures. Lactate dehydrogenase (LDH) is a cytosolic enzyme that is only present in the extracellular medium if cell membranes rupture, indicating cell death. Therefore, LDH release into the culture medium is a convenient assay of cell death. The results of Table 3 indicate that each of the compounds tested decreased neuronal cell death from hypoxia in vitro.
The uteri of Sprague Dawley rats in their 18th day of fetal gestation were removed under halothane anesthesia and placed in a chilled bath of magnesium and calcium-free Hank's balanced salt solution (HBSS). Cortical brain hemispheres were removed from individual fetuses and digested in 0.1% trypsin in HBSS for 15 minutes at room temperature. Digested tissue was washed three times with HBSS then dissociated into a single cell suspension by trituration with a glass pipette. […] One hundred microliters of this cell suspension was pipetted into individual wells of 96-well tissue culture plates previously coated with poly-L-lysine, then stored in a humidified incubator (37° C., 3% CO2). Glial cell growth was stopped by the addition of 100 μL of 45% DME, 45% HAM F12, and 10% Horse serum (10/0 DME/F12) containing 15 μg/mL of 5-fluoro-2-deoxyuridine and 35 μg/mL of uridine, 3 days after the initial plating. Cultures were fed at 2- or 3-day intervals thereafter by replacing 100 μL of spent medium with an identical volume of fresh 10/0 DME/F12.
Sixteen-day-old cultures were prepared for experiments by removing growth medium from each culture well and rinsing once with 250 μL of Mg^++ -free HBSS containing 1.8 mM Ca^++ and 1 g/L D-glucose (0 Mg-HBSS) Control and test agent solutions, prepared using 0 Mg-HBSS medium, were dispensed in 50 μL aliquots into individual test wells (Total volume/well=50 μL). All liquid medium preparations to this point were equilibrated with […], 5% CO2. Plates were placed into a 37° C., humidified, triple-gas incubator with O2 and CO2 levels maintained at 1% and 10%, respectively. Plates were removed after 7.5 hours of oxygen deprivation and restored to normoxic conditions (20% O2 /10% CO2, 37° C.) following a 50 μL addition to each well of appropriate control or test agent solutions containing 1.8 mM Ca^++, 1.6 mM Mg^++, and 7.0 g/L D-glucose. Final medium concentrations of 1.8 mM Ca^++, 0.8 mM Mg^++, and 4 g/L D-glucose were present during the reoxygenation period.
Medium concentrations of lactate dehydrogenase (LDH), a cytosolic enzyme normally retained by cells but released upon cell death, were determined for each well following an additional 16.5-hour normoxic exposure period. Individual 25 μL medium specimens were collected from each well and placed into wells of a clean 96-well microtiter plate containing 225 μL of 0.1 M KPO4 buffer (pH=7.5 at 25° C.) and 30 μg NADH (reduced […] adenine dinucleotide). After 10-minute incubation at 37° C., 30 μL of 2.4 mM sodium pyruvate was added to each well and plates were gently shaken to mix solution. Plates were immediately placed into a Multiscan MCC/340 plate reader and scanned for […] (excitation at 340 nm) for 1 minute at 5-second intervals. A kinetic analysis of the change in medium absorbance resulting from shifts in NADH concentrations was used, in combination with factors to correct for temperature, light path, and volume adjustments to determine medium LDH concentrations (IU/mL). Normoxic control baseline LDH levels were subtracted from both hypoxic control and test agent values prior to determining test agent effectiveness in preventing oxygen deprivation-induced injury.

Hippocampal Slices [7] = test: Recovery of synaptic activity (EPSP) in hippocampal slices after hypoxia-hypoglycemia (Example 3); type: cell-based, rat (male Wistar); details: for percentage of slices that recovered EPSPs: control approximately 5%
Experimental: An in vitro model with rat hippocampal brain slices exposed to hypoxia-hypoglycemia was used to simulate ischemia. Neuroprotection was measured by the recovery of excitatory postsynaptic potentials after reoxygenation.
Young male Wistar rats (150 to 250 g) were anesthetized with ketamine (200 mg/kg IP) and ether and were perfused transcardially with cold, oxygenated, low sodium-containing physiological buffer solution (252 mM sucrose, 3.5 mM KCl, 1.0 mM MgSO4, 20 mM CaC1, 26 mM NaHCO3, 1.25 mM NaH2 PO4, and 10 mM glucose) with 50 μM ketamine added. Brains were removed and hippocampi carefully excised. Hippocampi were sliced transversely at 450 μm and transferred into cold (4° C.) low-sodium buffer solution gassed with 95% O2, 5% CO2 at 31° C. After 45 minutes slices were transferred to oxygenated normal physiological solution (126 mM NaCl, 3.5 mM KCl, 1.0 mM MgSO4, 2.0 mM CaCl2, 20 mM NaHCO3, 1.25 mM NaH2 PO4, and 10 mM glucose) at 31° C. for at least 1 hour before experiments began. After preincubation, slices were transferred to a heated (36° C.), gassed incubation chamber where they were continuously superfused with gassed normal physiological solution. Evoked extracellular synaptic potentials (EPSPs) were obtained using glass micropipettes placed approximately 100 μm into the slice. Electrical stimulation was applied once per minute to the stratum radiatum by insulated paired nichrome wires (60 μm diameter). Stimuli consisted of 150 μA pulses lasting 0.4 msec. The 150 μA stimulus usually gave nearly a maximal EPSP (excitatory postsynaptic potential) amplitude. Data from a slice were used only if EPSP amplitude was greater than 2.0 mV before hypoxia-hypoglycemia.
as §1

## O=C(Nc1ccncc1)Nc1ccc(Cl)c(Cl)c1 [N-(3,4-dichlorophenyl)-N'-4-pyridinyl urea]
Cytokinin activity
  cytokinin activity: show such activity

## Cc1cccc(Cl)c1NC(=O)/C=C1\SCC(=O)N1C [ralitoline]
[1]
  neuroprotective capabilities: shown in vitro to have neuroprotective capabilities

## CCN(CC)CC(=O)Nc1c(C)cccc1C [Lidocaine, lidocaine]
Hippocampal Slices [2]; 50 μM
  Number Slices Recovered / Number Slices Tested (≥50% EPSP amplitude recovery after reoxygenation): 5/9
Hippocampal Slices [2]; 200 μM
  Number Slices Recovered / Number Slices Tested (≥50% EPSP amplitude recovery after reoxygenation): 9/10
  protection from loss of EPSPs: almost complete protection
Hippocampal Slices [2]
  recovery of EPSPs, overall effect: improves recovery of EPSPs at both concentrations tested
Hippocampal Slices [2]; listed as lidocaine
  recovery of EPSPs, overall effect: enhanced recovery of EPSPs
Hippocampal Slices [3]; 500 μM
  effect on presynaptic action potential and EPSPs: reversibly reduced both presynaptic action potential and EPSPs
[4]
  peripheral hypotensive effects: peripheral hypotensive effects
[5]
  action on voltage-dependent sodium channels: more selective for sodium channels
[1]
  neuroprotective capabilities: shown in vitro to have neuroprotective capabilities

## Nc1nnc(-c2cccc(Cl)c2Cl)c(N)n1 [Lamotrigine, lamotrigine]
[6]
  inhibition at 30 µM: 68%
  inhibition at 100 µM: 83%
[1]
  neuroprotective capabilities: shown in vitro to have neuroprotective capabilities

## Cc1cccc(C)c1NC(=O)Nc1ccncc1 [N-(2,6-dimethylphenyl)-N'-4-pyridinyl urea]
[6]
  inhibition at 30 µM: 106%
  inhibition at 100 µM: 81%

## O=C(Nc1cccnc1)Nc1ccc(Cl)c(Cl)c1 [N-(3,4-dichlorophenyl)-N'-3-pyridinyl urea]
Cytokinin activity
  cytokinin activity: show such activity

## COCCOC(=O)C1=C(C)NC(C)=C(C(=O)OC(C)C)C1c1cccc([N+](=O)[O-])c1 (centres unmarked) [Nimodipine, nimodipine]
Hippocampal Slices [2]; 1 μM
  prevention of ischemic damage / loss of EPSPs: failed to prevent loss of EPSPs
Hippocampal Slices [2]; 1.0 μM
  Number Slices Recovered / Number Slices Tested (≥50% EPSP amplitude recovery after reoxygenation): 1/9
[5]
  concentration at which it interacts with sodium channels: greater than 10 μM

## NC(=O)N1c2ccccc2C=Cc2ccccc21 [Carbamazepine, carbamazepine]
Hippocampal Slices [2]; 20 μM
  Number Slices Recovered / Number Slices Tested (≥50% EPSP amplitude recovery after reoxygenation): 2/9
Hippocampal Slices [2]; 50 μM
  Number Slices Recovered / Number Slices Tested (≥50% EPSP amplitude recovery after reoxygenation): 4/10
[6]
  inhibition at 30 µM: 53%
  inhibition at 100 µM: 95%
[5]
  action on voltage-dependent sodium channels: more selective for sodium channels
[1]
  neuroprotective capabilities: shown in vitro to have neuroprotective capabilities

## Cc1cccc(Cl)c1NC(=O)Nc1ccncc1 [N-(2-chloro-6-methylphenyl)-N'-4-pyridinyl urea]
Hippocampal Slices [3]; concentrations used, before hypoxia
  effect on EPSP / presynaptic action potential amplitude: none of the concentrations tested reduced EPSP or presynaptic action potential amplitude
[6]
  inhibition at 30 µM: 101%
  inhibition at 100 µM: 80%
[5]
  action on voltage-dependent sodium channels: modulates voltage-dependent sodium channels of nerve cell membranes; also recorded: modulator of neuronal voltage-gated sodium ion channels
Hippocampal Slices [7]; 0.5 μM
  Number Slices Recovered / Number Slices Tested (≥50% EPSP amplitude recovery after reoxygenation): 0/8
  changes from hypoxia: not different from control treatments
Hippocampal Slices [7]; 2 μM
  Number Slices Recovered / Number Slices Tested (≥50% EPSP amplitude recovery after reoxygenation): 3/8
  mean EPSP amplitude after hypoxia: near significance
  percentage of slices that recovered EPSPs: 37%
Hippocampal Slices [7]; 2 μM and 20 μM
  protection / improved recovery of EPSPs: significant protection of hippocampal slices from irreversible loss of synaptic potentials; also recorded: improves recovery of EPSPs
Hippocampal Slices [7]; 20 μM
  Number Slices Recovered / Number Slices Tested (≥50% EPSP amplitude recovery after reoxygenation): 9 out of 10
  mean EPSP amplitude after hypoxia: significant with a high degree of confidence; also recorded: almost complete recovery of EPSPs
  protection from loss of EPSPs: almost complete protection from loss of EPSPs
  percentage of slices that recovered EPSPs: 90%
Hippocampal Slices [7]; 20 μM, listed as Test drug
  Number Slices Recovered / Number Slices Tested (≥50% EPSP amplitude recovery after reoxygenation): 9/10
Hippocampal Slices [7]; concentration-related, 0.5-20 μM
  mean EPSP amplitude after hypoxia, overall effect: significantly increased the mean EPSP amplitude after hypoxia; also recorded: increased EPSP amplitude following hypoxia in a concentration-dependent manner

## O=C(Nc1ccncc1)Nc1c(Cl)cccc1Cl [N-(2,6-Dichlorophenyl)-N'-4-pyridinyl urea]
[6]
  inhibition at 30 µM: 62%
  inhibition at 100 µM: 88%
